# Article PMC11062899, “De novo development of small cyclic peptides that are orally bioavailable” (Nature Chemical Biology, 2023)
# Several values for one entry are separate records, joined by “and”; a condition that tells them apart may be missing. Equal values may be shown once.
# Assays:
# in vivo = settings: rat
# Description: Male Wistar Han rats (250–350 g) obtained at an age of 9–10 weeks from Charles River Laboratories were used for the studies and kept in housing groups of two or three. Experiments were performed at the age of 10–11 weeks. Intravenous (i.v.) administrations were carried out using tail vein injections. Peptides were dissolved in pure DMSO and diluted with 5% Cremophor EL in water (5% DMSO final) at a concentration of 0.5 mg ml^−1. I.v. administration was carried out at a dose of 1 mg kg^−1 body weight via the left lateral tail vein of rats (n = 3) using an Insyte-W 24 G × 0.75 in. (0.7 mm × 19 mm) temporary peripheral venous catheter (BD Biosciences, 381312). Before injecting the peptide solution, a correct placement of the catheter was confirmed by an apparent reflux of blood through the catheter. Orally (p.o.) administrated peptides were dissolved in DMSO and diluted with 10% Cremophor EL in water (5% DMSO final) at a concentration of 1 mg ml^−1 and administrated by oral gavage to rats (n = 3) at a dose of 10 mg kg^−1. Rats used for oral administration were fasted overnight for 14 h and provided access to food again 2 h after administration, whereas access to water was not restricted throughout the whole experimental procedure. Volumes of 100 μl of blood samples were collected via the right lateral tail vein at different timepoints after i.v. or p.o. administration into heparinized tubes (Sarstedt, 20.1282); the samples were stored on ice for up to 4 h; and plasma was obtained by centrifugation at 2,000g for 5 min at 4 °C. A volume of 40 μl of plasma was added to 120 μl of an acetonitrile:water (9:1) solution containing an internal standard (5 μg ml^−1). Samples were vortexed for 10 s and sonicated for 10 min, and precipitated plasma proteins were pelleted by centrifugation at 16,000g for 15 min at 4 °C. Volumes of 120 μl of supernatant were transferred to a new tube, and solvent was evaporated in a rotary vacuum concentrator (RVC 2–33 CDplus IR, Christ) for 2 h at 40 °C. Dried residues were dissolved in 20 μl of a water:acetonitrile (7:3) (v/v) solution, centrifuged at 14,000g for 5 min and analyzed by LC–MS. Peptides were quantified by extracting ion chromatograms corresponding to their respective mass, integrating the area under the peptide peak and calculating the concentrations by normalization to a calibration curve. Calibration curves were prepared by analyzing spiked samples of blood or plasma with known concentrations of peptide. The absolute oral bioavailability was calculated using equation (6).6 F=AUCp.o./AUCi.v.×Dosei.v./Dosep.o.×100 where AUCp.o. and AUCi.v. are calculated from a plasma concentration versus time curve using the linear trapezoidal rule, and Dosei.v. and Dosep.o. are the intravenously or orally administrated amount of peptide in mg kg^−1.
# [1] = Metabolic stability in rat liver microsomes (RLMs); settings: for TIC value of compound, metabolic stability RLM: replicates R1-R3; for microsomal CLint / half-life: rat; for TIC value of compound, 0 min, R1 / TIC value of compound, 0 min, R3 / TIC value of compound, 5 min, R1 / TIC value of compound, 5 min, R3 / TIC value of compound, 15 min, R1 / TIC value of compound, 15 min, R3 / TIC value of compound, 30 min, R1 / TIC value of compound, 30 min, R3 / TIC value of compound, 60 min, R1 / TIC value of compound, 60 min, R3: rat liver microsomes
# [2] = male, Wistar Han, iv, 1 mg/kg, Plasma Concentration (uM)
# [3] = microsomes, Half Life, RLM, individual replicates R1-R3
# [4] = microsomes, pH 7.4, Metabolic stability: Half life T1/2 (min), RLMs, mean and SD, three measurements
# [5] = CL (ul/min/mg protein), R1, RLM CL, replicate R1, unrounded
# [6] = CL (ul/min/mg protein), R2, RLM CL, replicate R2, unrounded
# [7] = CL (ul/min/mg protein), R3, RLM CL, replicate R3, unrounded
# [8] = Half Life (min), R1, RLM metabolic stability, replicate R1
# [9] = Half Life (min), R2, RLM metabolic stability, replicate R2
# [10] = Half Life (min), R3, RLM metabolic stability, replicate R3
# [11] = microsomes, Metabolic stability: Half life T1/2 (min), RLMs, mean and SD, three measurements
# [12] = microsomes, Metabolic stability: RLM CL (ul/min/mg), RLMs, mean and SD, three measurements
# [13] = microsomes, RLM CL, Average, average of R1-R3
# [14] = microsomes, RLM CL, R1, RLM CL, replicate R1, summary block
# [15] = microsomes, RLM CL, R2, RLM CL, replicate R2, summary block
# [16] = microsomes, RLM CL, R3, RLM CL, replicate R3, summary block
# [17] = male, Wistar Han, iv, 1 mg/kg, Concentration in blood samples
# [18] = male, Wistar Han, po, 10 mg/kg, Concentration in blood samples
smiles,measurement,setting,value
O=C1C[C@H]2CCCN2C(=O)[C@H](Cc2ccccc2)NC(=O)[C@@H](NC(=O)c2ccc(Cl)s2)CCC=CCCCCN1 [peptide 43],level at time molar at 0.08 h,in vivo; [2],3.19 µM
same,level at time molar at 0.25 h,in vivo; [2],1.63 µM
same,level at time molar at 2 h,in vivo; [2],0.29 µM
same,Tmax,"in vivo; male, Wistar Han, po",30 min
same,bioavailability,in vivo; po,4.5 ± 2.5%
same,Cmax,"in vivo; po, 10 mg/kg",0.183 ± 0.096 µM
same,"TIC value of compound, metabolic stability RLM",[1]; 0 min,15121279 (2×) and 12636158
same,"TIC value of compound, metabolic stability RLM",[1]; 5 min,12214985 and 10185041 and 10498454
same,"TIC value of compound, metabolic stability RLM",[1]; 15 min,8936637 and 6181065 and 6718551
same,"TIC value of compound, metabolic stability RLM",[1]; 30 min,4407741 and 2845968 and 2692424
same,"TIC value of compound, metabolic stability RLM",[1]; 60 min,749207 and 393357 and 268692
same,CL (ul/min/mg protein) in RLMs (single replicates R1–R3),[1]; Fig. 5e source data,82.7957 ul/min/mg protein and 93.0201 ul/min/mg protein and 80.07 ul/min/mg protein and 82.80 ul/min/mg protein and 93.02 ul/min/mg protein
same,Half Life (min) in RLMs (single replicates R1–R3),[1]; Fig. 5e source data,16.74 min and 14.9 min
same,"Half Life, RLM",[1]; individual replicates R1-R3,16.74 min and 14.9 min
same,microsomal CLint,"[1]; microsomes, CL (ul/min/mg protein) in RLMs (single replicates R1–R3), Fig. 5e source data",80.1 µL/min/mg
same,microsomal CLint,"[1]; microsomes, Clearance (CL) in RLMs, calculated from half-life, mean and s.d. of three measurements",85 ± 6 µL/min/mg
same,half-life,"[1]; microsomes, Half Life (min) in RLMs (single replicates R1–R3), Fig. 5e source data",17.3 min
same,half-life,[1]; [3],17.3 min
same,microsomal CLint,"[1]; microsomes, pH 7.4, CL (ul/min/mg protein) in RLMs Average, Fig. 5e source data",85.3 µL/min/mg
same,half-life,[1]; [4],16.3 ± 1 min
O=C1C[C@H]2CCCN2C(=O)[C@H](Cc2ccccc2)NC(=O)[C@@H](NC(=O)c2ccc(Cl)s2)CCSCc2cccc(n2)CSCCN1 [compound 33],"TIC value of compound, 0 min, R1","[1]; 0 min, replicate R1",21264470
same,"TIC value of compound, 0 min, R3","[1]; 0 min, replicate R3",18840495
same,"TIC value of compound, 5 min, R1","[1]; 5 min, replicate R1",18437497
same,"TIC value of compound, 5 min, R3","[1]; 5 min, replicate R3",18024716
same,"TIC value of compound, 15 min, R1","[1]; 15 min, replicate R1",13918481
same,"TIC value of compound, 15 min, R3","[1]; 15 min, replicate R3",11416589
same,"TIC value of compound, 30 min, R1","[1]; 30 min, replicate R1",9967302
same,"TIC value of compound, 30 min, R3","[1]; 30 min, replicate R3",7497114
same,"TIC value of compound, 60 min, R1","[1]; 60 min, replicate R1",4659151
same,"TIC value of compound, 60 min, R3","[1]; 60 min, replicate R3",3520876
same,microsomal CLint,[1]; [5],52.1 µL/min/mg
same,microsomal CLint,[1]; [6],71 µL/min/mg
same,microsomal CLint,[1]; [7],58.8 µL/min/mg
same,half-life,[1]; [8],26.6 min
same,half-life,[1]; [9],19.5 min
same,half-life,[1]; [10],23.6 min
same,half-life,[1]; [11],23 ± 3 min
same,microsomal CLint,[1]; [12],61 ± 8 µL/min/mg
same,microsomal CLint,[1]; [13],60.6 µL/min/mg
same,microsomal CLint,[1]; [14],52.1 µL/min/mg
same,microsomal CLint,[1]; [15],71 µL/min/mg
same,microsomal CLint,[1]; [16],58.8 µL/min/mg
O=C1C[C@H]2CCCN2C(=O)[C@H](Cc2ccccc2)NC(=O)[C@@H](NC(=O)c2ccc(Cl)cc2)CCC=CCCCCN1 (mixture of isomers) [peptide 46],Concentration in blood samples,"in vivo; male, Wistar Han, iv, 1 mg/kg, 1 h",0.09 µM
same,level at time molar at 0.08 h,in vivo; [17],1.31 µM
same,level at time molar at 0.25 h,in vivo; [17],0.59 µM
same,level at time molar at 0.5 h,in vivo; [17],0.28 µM
same,level at time molar at 1 h,in vivo; [17],0.12 µM
same,level at time molar at 2 h,in vivo; [17],0.0535 µM
same,level at time molar at 0.5 h,in vivo; [18],0.29 µM
same,level at time molar at 1 h,in vivo; [18],0.24 µM
same,level at time molar at 2 h,in vivo; [18],0.2 µM
same,level at time molar at 8 h,in vivo; [18],0.0171 µM
same,bioavailability,in vivo; po,18.4 ± 1.9%
same,Cmax,"in vivo; po, 10 mg/kg",0.4 ± 0.12 µM
same,"TIC value of compound, metabolic stability RLM",[1]; 0 min,14110188 (2×) and 12352514
same,"TIC value of compound, metabolic stability RLM",[1]; 5 min,13677902 and 11194388 and 11188088
same,"TIC value of compound, metabolic stability RLM",[1]; 15 min,10674204 and 7516980 and 9028625
same,"TIC value of compound, metabolic stability RLM",[1]; 30 min,7710068 and 5736371 and 6256299
same,"TIC value of compound, metabolic stability RLM",[1]; 60 min,3465219 and 2801334 and 3774480
same,"CL, RLM",[1]; individual replicates R1-R3,41.9492 ul/min/mg protein and 42.0127 ul/min/mg protein
same,"Half Life, RLM",[1]; individual replicates R1-R3,33.04 min and 32.99 min
same,microsomal CLint,"[1]; microsomes, CL, RLM, individual replicates R1-R3",41.5 µL/min/mg
same,half-life,[1]; [3],33.4 min
same,microsomal CLint,[1]; [12],43 ± 1 µL/min/mg
same,half-life,[1]; [4],33 ± 1 min
O=C1C[C@H]2CCCN2C(=O)[C@H](Cc2ccccc2)NC(=O)[C@@H](NC(=O)c2ccc(Cl)s2)CSCc2cccc(n2)CSCCN1 [compound 31],"TIC value of compound, 0 min, R1","[1]; 0 min, replicate R1",21675652
same,"TIC value of compound, 0 min, R3","[1]; 0 min, replicate R3",21375886
same,"TIC value of compound, 5 min, R1","[1]; 5 min, replicate R1",16129690
same,"TIC value of compound, 5 min, R3","[1]; 5 min, replicate R3",21185792
same,"TIC value of compound, 15 min, R1","[1]; 15 min, replicate R1",14173175
same,"TIC value of compound, 15 min, R3","[1]; 15 min, replicate R3",14991116
same,"TIC value of compound, 30 min, R1","[1]; 30 min, replicate R1",10634659
same,"TIC value of compound, 30 min, R3","[1]; 30 min, replicate R3",9842710
same,"TIC value of compound, 60 min, R1","[1]; 60 min, replicate R1",4587256
same,"TIC value of compound, 60 min, R3","[1]; 60 min, replicate R3",4284596
same,microsomal CLint,[1]; [5],53.6 µL/min/mg
same,microsomal CLint,[1]; [6],48.6 µL/min/mg
same,microsomal CLint,[1]; [7],49.4 µL/min/mg
same,half-life,[1]; [8],25.9 min
same,half-life,[1]; [9],28.5 min
same,half-life,[1]; [10],28 min
same,half-life,[1]; [11],27 ± 1 min
same,microsomal CLint,[1]; [12],51 ± 2 µL/min/mg
same,microsomal CLint,[1]; [13],50.6 µL/min/mg
same,microsomal CLint,[1]; [14],53.6 µL/min/mg
same,microsomal CLint,[1]; [15],48.6 µL/min/mg
same,microsomal CLint,[1]; [16],49.4 µL/min/mg
